Consider 20 compounds from US11254668B2, “Pyrazolo[1,5-A]pyrazin-4-yl and related derivatives” (Pfizer Inc., priority 2017, dated 2022).

Holding throughout (format): biochemical
One assay concerns the target JAK3 (Homo sapiens (Human), UniProt P52333). The assay can be described thus: JAK Caliper Enzyme Assay at 1 mM ATP, JAK3. An outline of the steps:
(§1)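 Recombinant human kinase domains phosphorylate a fluorescent synthetic peptide at 1 mM ATP, room temperature, with enzyme and time tuned for 20-30% conversion; EDTA-stopped. Product/substrate separated by microfluidic mobility shift; percent effect versus DMSO and positive controls fitted to IC50 (nM).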

In a further assay the target is TYK2 (Homo sapiens (Human), UniProt P29597). The assay can be described thus: JAK Caliper Enzyme Assay at 1 mM ATP, TYK2. The procedure, abridged:
(§2)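 Recombinant human kinase domains phosphorylate a fluorescent synthetic peptide at 1 mM ATP and room temperature, with enzyme level and time tuned to 20–30% conversion before an EDTA stop. Microfluidic mobility-shift separation gives percent product from peak heights. Percent effect against plate controls (DMSO baseline) is plotted versus compound concentration.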

The next assay addresses JAK2 (Homo sapiens (Human), UniProt O60674). The assay can be described thus: JAK Caliper Enzyme Assay at 1 mM ATP, JAK2. An outline of the steps:
as §2

Another assay has as its target JAK1 (Homo sapiens (Human), UniProt P23458). Nature of the assay: JAK Caliper Enzyme Assay at 1 mM ATP, JAK1. An outline of the steps:
as §1

pIC50: −log10 of the molar value.

Sequence of JAK2 (O60674 849-1124): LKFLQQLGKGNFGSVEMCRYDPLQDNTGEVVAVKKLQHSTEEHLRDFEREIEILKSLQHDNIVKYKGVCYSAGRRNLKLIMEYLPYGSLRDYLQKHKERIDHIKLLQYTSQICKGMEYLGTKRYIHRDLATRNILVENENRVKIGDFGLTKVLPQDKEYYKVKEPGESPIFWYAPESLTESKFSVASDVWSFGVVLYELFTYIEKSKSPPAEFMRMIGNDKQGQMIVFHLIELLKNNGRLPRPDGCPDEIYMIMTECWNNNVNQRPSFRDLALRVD
Sequence of TYK2 (P29597 897-1176): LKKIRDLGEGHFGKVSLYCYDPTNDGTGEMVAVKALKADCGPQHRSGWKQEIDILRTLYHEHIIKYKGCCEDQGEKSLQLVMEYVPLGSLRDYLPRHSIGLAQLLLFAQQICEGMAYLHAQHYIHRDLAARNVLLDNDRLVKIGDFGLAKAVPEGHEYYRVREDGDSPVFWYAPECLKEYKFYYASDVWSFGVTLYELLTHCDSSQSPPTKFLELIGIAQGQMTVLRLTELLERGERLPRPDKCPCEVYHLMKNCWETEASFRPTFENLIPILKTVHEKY
Sequence of JAK1 (P23458 875-1153): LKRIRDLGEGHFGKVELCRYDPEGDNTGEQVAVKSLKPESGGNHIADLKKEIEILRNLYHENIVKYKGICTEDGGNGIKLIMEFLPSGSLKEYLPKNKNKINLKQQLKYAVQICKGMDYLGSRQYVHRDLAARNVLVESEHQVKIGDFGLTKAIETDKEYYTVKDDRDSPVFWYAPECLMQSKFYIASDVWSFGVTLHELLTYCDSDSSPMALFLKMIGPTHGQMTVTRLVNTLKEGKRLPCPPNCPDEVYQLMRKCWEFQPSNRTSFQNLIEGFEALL
Sequence of JAK3 (P52333 822-1111): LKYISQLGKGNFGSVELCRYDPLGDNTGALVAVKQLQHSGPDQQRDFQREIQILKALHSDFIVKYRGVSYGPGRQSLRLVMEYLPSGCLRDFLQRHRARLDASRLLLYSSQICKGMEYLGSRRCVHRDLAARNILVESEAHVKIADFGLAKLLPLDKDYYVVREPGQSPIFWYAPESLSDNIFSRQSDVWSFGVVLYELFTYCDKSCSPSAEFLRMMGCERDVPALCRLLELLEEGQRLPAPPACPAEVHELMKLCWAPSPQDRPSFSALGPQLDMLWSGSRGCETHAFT

For orientation: pIC50 means the IC50 on a negative log10 scale, so that one unit is a factor of ten. Regarding `Cc1onc(N)c1-c1cc2ncccc2c(-c2ccn(C3(CC#N)CN(S(C)(=O)=O)C3)n2)n1` [Example 147, [3-{3-[7-(3-amino-5-methyl-1,2-oxazol-4-yl)-1,6-naphthyridin-5-yl]-1H-pyrazol-1-yl}-1-(methylsulfonyl)azetidin-3-yl]acetonitrile], the negative logarithm of the IC50 (pIC50) on JAK3 is below 5.00; at TYK2 it was 5.12; on JAK2, below 5.00; at JAK1 it was below 5.00.

Consider `Cc1nc(-c2cc3ncccc3c(-c3ccn(C4(CC#N)CN(CC(F)(F)F)C4)n3)n2)c[nH]1` [Example 150, [3-{3-[7-(2-methyl-1H-imidazol-4-yl)-1,6-naphthyridin-5-yl]-1H-pyrazol-1-yl}-1-(2,2,2-trifluoroethyl)azetidin-3-yl]acetonitrile], for which the pIC50 is below 5.00 at JAK3, 6.54 at TYK2, 5.47 at JAK2 and 5.01 at JAK1.

For the compound `Cc1nc(-c2cc3ncccc3c(-c3ccn(C4(CC#N)CN(CC(F)(F)F)C4)n3)n2)cn1C` [Example 151, [3-{3-[7-(1,2-dimethyl-1H-imidazol-4-yl)-1,6-naphthyridin-5-yl]-1H-pyrazol-1-yl}-1-(2,2,2-trifluoroethyl)azetidin-3-yl]acetonitrile], the pIC50 at JAK3 is below 5.00; on TYK2, 6.51; at JAK2 it was 5.78; at JAK1 it was below 5.00.

Turning to `Cc1ncc(-c2cc3ncccc3c(-c3ccn(C4(CC#N)CN(CC(F)(F)F)C4)n3)n2)n1C` [Example 152, [3-{3-[7-(1,2-dimethyl-1H-imidazol-5-yl)-1,6-naphthyridin-5-yl]-1H-pyrazol-1-yl}-1-(2,2,2-trifluoroethyl)azetidin-3-yl]acetonitrile], the negative logarithm of the IC50 (pIC50) on JAK3 was below 5.00; on TYK2, 5.38; on JAK2, below 5.00; at JAK1 it was below 5.00.

For the compound `N#CCC1(n2ccc(-c3nc(-c4cn[nH]n4)cc4ncccc34)n2)CN(CC(F)(F)F)C1` [Example 153, [3-{3-[7-(2H-1,2,3-triazol-4-yl)-1,6-naphthyridin-5-yl]-1H-pyrazol-1-yl}-1-(2,2,2-trifluoroethyl)azetidin-3-yl]acetonitrile], the pIC50 was below 5.00 on JAK3, 6.62 on TYK2, 5.48 at JAK2 and 5.23 on JAK1.

Take `Cn1ncc(-c2cc3ncccc3c(-c3ccn(C4(CC#N)CN(CC(F)(F)F)C4)n3)n2)n1` [Example 154, [3-{3-[7-(2-methyl-2H-1,2,3-triazol-4-yl)-1,6-naphthyridin-5-yl]-1H-pyrazol-1-yl}-1-(2,2,2-trifluoroethyl)azetidin-3-yl]acetonitrile]: the pIC50 is below 5.00 at JAK3, 6.54 on TYK2, 5.50 on JAK2 and below 5.00 on JAK1.

Turning to `N#CCC1(n2ccc(-c3nc(-c4nc(CO)cs4)cc4ncccc34)n2)CC(C#N)C1` (stereo not drawn) [Example 156, cis-3-(cyanomethyl)-3-(3-{7-[4-(hydroxymethyl)-1,3-thiazol-2-yl]-1,6-naphthyridin-5-yl}-1H-pyrazol-1-yl)cyclobutanecarbonitrile], the pIC50 on JAK3 is below 5.00; at TYK2, 6.92; on JAK2, 6.09; on JAK1, 5.69.

With `CS(=O)(=O)N1CC(CC#N)(n2ccc(-c3nc(-c4c[nH]c5nccc-5c4)cc4ncccc34)n2)C1` [Example 157, [1-(methylsulfonyl)-3-{3-[7-(7H-pyrrolo[2,3-b]pyridin-5-yl)-1,6-naphthyridin-5-yl]-1H-pyrazol-1-yl}azetidin-3-yl]acetonitrile], the pIC50 is below 5.00 at JAK3, 6.83 at TYK2, 6.07 at JAK2 and 5.77 at JAK1.

Regarding `N#CCC1(n2ccc(-c3nc(-c4cnc5cc[nH]c5c4)cc4ncccc34)n2)CN(CC(F)(F)F)C1` [Example 158, [3-{3-[7-(1H-pyrrolo[3,2-b]pyridin-6-yl)-1,6-naphthyridin-5-yl]-1H-pyrazol-1-yl}-1-(2,2,2-trifluoroethyl)azetidin-3-yl]acetonitrile], the pIC50 was below 5.00 at JAK3, 7.48 at TYK2, 6.18 on JAK2 and 5.70 at JAK1.

As to `CS(=O)(=O)N1CC(CC#N)(n2ccc(-c3nc(-c4c[nH]c5ncccc45)cc4ncccc34)n2)C1` [Example 159, [1-(methylsulfonyl)-3-{3-[7-(1H-pyrrolo[2,3-b]pyridin-3-yl)-1,6-naphthyridin-5-yl]-1H-pyrazol-1-yl}azetidin-3-yl]acetonitrile], the pIC50 on JAK3 is below 5.00; at TYK2, 8.15; on JAK2, 6.94; on JAK1, 6.92.

With `CS(=O)(=O)N1CC(CC#N)(n2ccc(-c3nc(-c4c[nH]c5cccnc45)cc4ncccc34)n2)C1` [Example 160, [1-(methylsulfonyl)-3-{3-[7-(1H-pyrrolo[3,2-b]pyridin-3-yl)-1,6-naphthyridin-5-yl]-1H-pyrazol-1-yl}azetidin-3-yl]acetonitrile], the pIC50 on JAK3 was below 5.00; at TYK2 it was 6.10; on JAK2, 5.25; on JAK1, below 5.00.

As for `CS(=O)(=O)N1CC(CC#N)(n2ccc(-c3nc(-c4cnn5ccccc45)cc4ncccc34)n2)C1` [Example 161, [1-(methylsulfonyl)-3-{3-[7-(pyrazolo[1,5-a]pyridin-3-yl)-1,6-naphthyridin-5-yl]-1H-pyrazol-1-yl}azetidin-3-yl]acetonitrile], the pIC50 at JAK3 was below 5.00; at TYK2, 7.46; at JAK2, 6.43; on JAK1, 6.39.

Regarding `CS(=O)(=O)N1CC(CC#N)(n2ccc(-c3nc(-c4ccc5nccn5c4)cc4ncccc34)n2)C1` [Example 162, [3-{3-[7-(imidazo[1,2-a]pyridin-6-yl)-1,6-naphthyridin-5-yl]-1H-pyrazol-1-yl}-1-(methylsulfonyl)azetidin-3-yl]acetonitrile], the pIC50 at JAK3 is below 5.00; at TYK2 it was 7.17; at JAK2, 6.26; at JAK1 it was 6.10.

For `CS(=O)(=O)N1CC(CC#N)(n2ccc(-c3nc(-c4ccn5ccnc5c4)cc4ncccc34)n2)C1` [Example 163, [3-{3-[7-(imidazo[1,2-a]pyridin-7-yl)-1,6-naphthyridin-5-yl]-1H-pyrazol-1-yl}-1-(methylsulfonyl)azetidin-3-yl]acetonitrile], the negative-log IC50 (pIC50) at JAK3 was below 5.00; at TYK2, 7.38; at JAK2, 6.53; at JAK1, 5.39.

As for `Cn1cnc2cc(-c3cc4ncccc4c(-c4ccn(C5(CC#N)CN(S(C)(=O)=O)C5)n4)n3)cnc21` [Example 164, [3-{3-[7-(3-methyl-3H-imidazo[4,5-b]pyridin-6-yl)-1,6-naphthyridin-5-yl]-1H-pyrazol-1-yl}-1-(methylsulfonyl)azetidin-3-yl]acetonitrile], the negative-log IC50 (pIC50) on JAK3 was below 5.00; at TYK2, 6.63; on JAK2, 5.33; on JAK1, 5.18.

Take `CS(=O)(=O)N1CC(CC#N)(n2ccc(-c3nc(-c4cnc5nccn5c4)cc4ncccc34)n2)C1` [Example 165, [3-{3-[7-(imidazo[1,2-a]pyrimidin-6-yl)-1,6-naphthyridin-5-yl]-1H-pyrazol-1-yl}-1-(methylsulfonyl)azetidin-3-yl]acetonitrile]: the pIC50 on JAK3 was below 5.00; on TYK2 it was 5.86; on JAK2, 5.03; on JAK1, below 5.00.

As to `CS(=O)(=O)N1CC(CC#N)(n2ccc(-c3nc(-c4cnc5cn[nH]c5c4)cc4ncccc34)n2)C1` [Example 166, [1-(methylsulfonyl)-3-{3-[7-(1H-pyrazolo[4,3-b]pyridin-6-yl)-1,6-naphthyridin-5-yl]-1H-pyrazol-1-yl}azetidin-3-yl]acetonitrile], the pIC50 on JAK3 is below 5.00; on TYK2 it was 7.36; on JAK2 it was 6.14; at JAK1, 5.13.

Regarding `N#CCC1(n2ccc(-c3nc(-c4ccc5nncn5c4)cc4ncccc34)n2)CN(CC(F)(F)F)C1` [Example 167, [3-{3-[7-([1,2,4]triazolo[4,3-a]pyridin-6-yl)-1,6-naphthyridin-5-yl]-1H-pyrazol-1-yl}-1-(2,2,2-trifluoroethyl)azetidin-3-yl]acetonitrile], the pIC50 on JAK3 is below 5.00; at TYK2, 6.89; on JAK2, 5.89; at JAK1 it was 5.56.

For `CS(=O)(=O)N1CC(CC#N)(n2ccc(-c3nc(-c4cnn5cccnc45)cc4ncccc34)n2)C1` [Example 168, [1-(methylsulfonyl)-3-{3-[7-(pyrazolo[1,5-a]pyrimidin-3-yl)-1,6-naphthyridin-5-yl]-1H-pyrazol-1-yl}azetidin-3-yl]acetonitrile], the pIC50 at JAK3 was below 5.00; on TYK2, 6.23; on JAK2, 5.18; on JAK1 it was 5.05.

Turning to `CS(=O)(=O)N1CC(CC#N)(n2ccc(-c3nc(-c4cnc5[nH]c(=O)[nH]c5c4)cc4ncccc34)n2)C1` [Example 169, [1-(methylsulfonyl)-3-{3-[7-(2-oxo-2,3-dihydro-1H-imidazo[4,5-b]pyridin-6-yl)-1,6-naphthyridin-5-yl]-1H-pyrazol-1-yl}azetidin-3-yl]acetonitrile], the pIC50 at JAK3 was below 5.00; at TYK2, 7.66; on JAK2, 6.62; on JAK1 it was below 5.00.
